Assay [1] has as its system Lee aptamer (56-mer) (DNA, aptamer) AGCAGCACAGAGGTCATGGGGGGTGTGACTTTGGTGTGCCTATGCGTGCTACGGAA
Put plainly: AuNP aggregation colorimetry (A650/A525), centrifugation and resuspension. Conditions: 100 mM NaCl (Na+), added after target incubation, water, 5% ethanol in target solution, room temperature; for binding: tested at 600 nM.

Assay [2] deals with Random ssDNA (70-mer) (DNA, single strand) AGGCCTAAGGGCATAATTAGCTCGAGCTCGAAAGGGGTTATATGATGATTTGAATTCATGGGGCCCGACT
The description is as above. Particulars: 100 mM NaCl (Na+), added after target incubation; water, 5% ethanol in target solution, room temperature; control; VTD3 series in Figures 2C and 3B.

With `CC(=O)[C@H]1CC[C@H]2[C@@H]3CCC4=CC(=O)CC[C@]4(C)[C@H]3CC[C@]12C`, in assay [1], the binding entry is “no”. Turning to `C[C@]12C=CC(=O)C=C1CC[C@@H]1[C@@H]2C(=O)C[C@@]2(C)[C@H]1CC[C@]2(O)C(=O)CO`, the binding result in assay [1] is “no”. On to `C=C1CC[C@H](O)C/C1=C/C=C1\CCC[C@]2(C)[C@@H]([C@H](C)CCCC(C)C)CC[C@@H]12`, for which the “Kd, app” value in assay [1] (10 min, apparent, Langmuir fit, aptamer adsorbed on AuNP) is 220 nM. The binding result in assay [2] is listed as “no”.

As for `C[C@]12CC[C@@H]3c4ccc(O)cc4CC[C@H]3[C@@H]1CC[C@@H]2O`, the binding entry in assay [1] is recorded as “no”. As for `C=C1CC[C@H](O)C/C1=C/C=C1\CCC[C@]2(C)[C@@H]([C@H](C)/C=C/[C@H](C)C(C)C)CC[C@@H]12`, in assay [1] (concentration series in Figure 2C), the binding entry is on record as “no”.

(Values after publication PMC6113223 (2018).)
